Test results: patent US8426620B2, “Production methods of furan fatty acids” (Kyungpook National University Industry-Academic Cooperation …, priority 2011, dated 2013)
“Also recorded” adds a separate entry of the source.

Experiment: DPPH radical scavenging (antioxidant) assay
Conditions: for radical scavenging activity (in words): DPPH assay, up to 100 μg/mL, FIG. 8
Experimental: Antioxidant activity was analyzed using 2,2-Diphenyl-1-picryhydrazyl (DPPH) assay according to the reports (22). Briefly, 50 μl of sample solution in DMSO was added to 200 μl of 200 μM DPPH radical solution in a 96-well plate. L-ascorbic acid and α-Tocopherol were used as positive controls. After 30 min of incubation at 37° C., the absorbance at 515 nm was measured. DPPH free radical scavenging activities was calculated using the equation; radical scavenging activity (%)=[1−(Asample−Ablank)/(Acontrol−Ablank)]×100. DMSO was used as a control.

Row | Structure (SMILES) | radical scavenging activity (in words) | radical scavenging activity (highest concentration tested, 100 μg/mL, 30 min at 37° C., absorbance 515 nm)
1 | CCCCCCCC[C@H](O)/C=C/[C@@H](O)CCCCCC(=O)O [DOD, 7,10-dihydroxy-8(E)-octadecenoic acid, reference compound] | did not show any activity | 
2 | CCCCCCCCc1ccc(CCCCCC(=O)O)o1 [7,10-EODA, 7,10-epoxy-octadeca-7,9-dienoic acid] | radical scavenging activity increasing in a dose-dependent manner; also recorded: increased dose-dependently | 23%
